Series [1] in a line: Metabolic stability in human liver microsomes. The note with it: read-out: Stability. The class given is ADME, Microsome.
Series [2] deals with T1, B1 bradykinin receptor (Homo sapiens, UniProt P46663).
T1 sequence (P46663 whole entry): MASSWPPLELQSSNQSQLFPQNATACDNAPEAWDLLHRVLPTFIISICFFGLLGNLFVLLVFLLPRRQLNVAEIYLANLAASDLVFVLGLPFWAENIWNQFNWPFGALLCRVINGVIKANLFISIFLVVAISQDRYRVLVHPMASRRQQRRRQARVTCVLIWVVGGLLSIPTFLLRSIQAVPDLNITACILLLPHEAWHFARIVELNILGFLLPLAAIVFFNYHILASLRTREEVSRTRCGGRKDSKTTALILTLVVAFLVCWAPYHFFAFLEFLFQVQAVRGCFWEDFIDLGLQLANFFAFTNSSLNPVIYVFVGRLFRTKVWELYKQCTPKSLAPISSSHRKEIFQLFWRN
Nature of the series: Antagonist activity at human bradykinin B1 receptor expressed in clone CHO-D-/aequorin cells by aquerin based assay. The class given is functional, cell-based.

In series [3] the target is T2, B1 bradykinin receptor (Oryctolagus cuniculus, UniProt P48748).
T2 sequence (P48748 whole entry): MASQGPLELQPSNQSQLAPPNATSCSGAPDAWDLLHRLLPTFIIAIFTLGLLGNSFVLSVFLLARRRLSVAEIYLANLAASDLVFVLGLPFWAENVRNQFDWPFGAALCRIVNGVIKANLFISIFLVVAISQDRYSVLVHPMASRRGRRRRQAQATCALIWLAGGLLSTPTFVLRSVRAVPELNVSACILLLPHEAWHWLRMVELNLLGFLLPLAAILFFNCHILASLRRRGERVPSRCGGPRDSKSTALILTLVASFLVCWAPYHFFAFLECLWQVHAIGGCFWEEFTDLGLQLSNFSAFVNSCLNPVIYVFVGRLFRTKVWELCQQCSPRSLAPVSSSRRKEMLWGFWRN
Briefly: Antagonist activity at rabbit bradykinin B1 receptor expressed in clone CHO-D-/aequorin cells by aquerin based assay. The class given is functional, cell-based.

Series [4] deals with T1, B1 bradykinin receptor. Briefly: Displacement of [3H]DAK from human bradykinin B1 receptor expressed in clone CHO-D-/aequorin cells. The class given is cell-based. Background: Loss of bound radioactivity is the signal in a displacement assay; it reports binding, not function.
Series [5] can be described thus: Metabolic stability in rat liver microsomes. The class given is ADME, Microsome. The note with it: read-out: Stability. On the technique in general: Microsomes from liver hold many membrane-bound enzymes, among them those of drug oxidation.
The subject of the next series is Oryctolagus cuniculus. Nature of the series: Inhibition of des-Arg-Kallidin-induced hypotensive response in sc dosed rabbit. The class given is functional, organism-based. More on the design: scale not given: the % may be the effect or the level left.

With `O=C(N[C@@H]1CCCc2cc(CN3CCCCC3)ccc21)[C@H](O)[C@H](O)CS(=O)(=O)c1ccc(C(F)(F)F)cc1`, the microsomal CLint in series [1] and in series [5] was 50 µL/min/mg throughout. Besides, the IC50 (usually the concentration that gives 50% inhibition) is 44.9 nM on B1 bradykinin receptor [2] and 210 nM against B1 bradykinin receptor [3]. Moreover, the Ki – broadly, a dissociation constant, usually derived from enzyme kinetics or from competition with a known ligand – on B1 bradykinin receptor [4] was 48.4 nM.
As for `O=C(N[C@@H]1CCCc2cc(CN3CCCCC3)ccc21)[C@H](O)[C@H](O)CS(=O)(=O)c1cccc(Cl)c1`, the microsomal CLint in series [1] amounted to 180 µL/min/mg; in series [5], 139 µL/min/mg.
With `O=C(C[C@H](O)CS(=O)(=O)c1ccc2ccccc2c1)N[C@@H]1CCCc2cc(CN3CCCCC3)ccc21`, the microsomal CLint in series [1] is 112 µL/min/mg; in series [5], 100 µL/min/mg. In addition, on B1 bradykinin receptor [2], it took 48.9 nM to reach half-maximal inhibition (IC50). This compound registered a Ki on B1 bradykinin receptor [4] of 41.4 nM.
Compound `O=C(C[C@@H](O)CS(=O)(=O)c1ccc2ccccc2c1)N[C@@H]1CCCc2cc(CN3CCCCC3)ccc21` returned a half-maximal inhibitory concentration (IC50) against B1 bradykinin receptor [2] of 107 nM. The affinity on B1 bradykinin receptor [4] corresponds to a Ki of 100 nM.
As to `O=C(CCCS(=O)(=O)c1ccc2ccccc2c1)N[C@@H]1CCCc2cc(CN3CCCCC3)ccc21`, the microsomal CLint in series [1] was found to be 50 µL/min/mg; in series [5], 100 µL/min/mg.
The corresponding values for `O=C(C[C@@H](NS(=O)(=O)c1ccc2ccccc2c1)c1ccccc1)N[C@@H]1CCCc2cc(CN3CCCCC3)ccc21` are 919 µL/min/mg and 572 µL/min/mg.
Consider `O=C(N[C@@H]1CCCc2cc(CN3CCCCC3)ccc21)[C@H](O)[C@H](O)CS(=O)(=O)c1cccc(Cl)c1Cl`, for which the figures for the microsomal CLint in series [1] and in series [5] were 214 µL/min/mg and 50 µL/min/mg, respectively.
As to `CC(C)(C)c1ccc(S(=O)(=O)C[C@@H](O)[C@@H](O)C(=O)N[C@@H]2CCCc3cc(CN4CCCCC4)ccc32)cc1`, the microsomal CLint in series [1] is 296 µL/min/mg; in series [5], 50 µL/min/mg. For the same compound, the half-maximal inhibitory concentration (IC50) was 4.5 nM against B1 bradykinin receptor [2] and 25.3 nM on B1 bradykinin receptor [3]. This compound showed a Ki on B1 bradykinin receptor [4] of 15.8 nM.
`O=C(C[C@@H](NS(=O)(=O)c1cccc(C(F)(F)F)c1)c1ccc(F)cc1)N[C@@H]1CCOc2cc(CN3CCCCC3)ccc21`: the Activity in the series with Oryctolagus cuniculus amounted to 47%.
As for `CO[C@H](CCS(=O)(=O)c1ccc2ccccc2c1)C(=O)N[C@@H]1CCCc2cc(CN3CCCCC3)ccc21`, the microsomal CLint in series [1] was 216 µL/min/mg; in series [5], 237 µL/min/mg.
For the compound `O=C(N[C@@H]1CCCc2cc(CN3CCCCC3)ccc21)[C@H](O)[C@H](O)CS(=O)(=O)c1ccc(Cl)c(Cl)c1`, the microsomal CLint in series [1] is 100 µL/min/mg; in series [5], 193 µL/min/mg. The half-maximal inhibitory concentration (IC50) at B1 bradykinin receptor [2] turned out to be 17.1 nM; against B1 bradykinin receptor [3] it was 20.3 nM. The compound also showed a Ki on B1 bradykinin receptor [4] of 16.9 nM.
Consider `O=C(CC(CS(=O)(=O)c1ccc2ccccc2c1)c1ccccc1)N[C@@H]1CCCc2cc(CN3CCCCC3)ccc21` (stereo not given in full), for which the microsomal CLint in series [1] is 744 µL/min/mg; in series [5], 167 µL/min/mg. Also, 13.7 nM corresponded to half-maximal inhibition on B1 bradykinin receptor [2] (IC50). The affinity at B1 bradykinin receptor [4], expressed as Ki, was 1.5 nM.
Turning to `O=C(N[C@@H]1CCCc2cc(CN3CCCCC3)ccc21)[C@H](O)CCS(=O)(=O)c1ccc2ccccc2c1`, the microsomal CLint stood at 100 µL/min/mg in series [1] and 50 µL/min/mg in series [5]. In addition, inhibition at B1 bradykinin receptor [2] was half-maximal at 50.6 nM (IC50). The compound also registered a Ki at B1 bradykinin receptor [4] of 23.5 nM.
The corresponding values for `O=C(N[C@@H]1CCCc2cc(CN3CCCCC3)ccc21)[C@@H](O)CCS(=O)(=O)c1ccc2ccccc2c1` are 100 µL/min/mg, 143 µL/min/mg, 30.8 nM and 19.1 nM.
On to `CO[C@@H](CC(=O)N[C@@H]1CCCc2cc(CN3CCCCC3)ccc21)CS(=O)(=O)c1ccc2ccccc2c1`, for which the microsomal CLint in series [1] was determined as 274 µL/min/mg; in series [5], 316 µL/min/mg.
As to `O=C(N[C@@H]1CCCc2cc(CN3CCCCC3)ccc21)[C@H](O)[C@H](O)CS(=O)(=O)c1ccccc1`, the results for the microsomal CLint in series [1] and in series [5] were 319 µL/min/mg and 50 µL/min/mg, respectively.
Take `Cc1ccc(S(=O)(=O)C[C@@H](O)[C@@H](O)C(=O)N[C@@H]2CCCc3cc(CN4CCCCC4)ccc32)cc1`: the microsomal CLint in series [1] and in series [5] was 50 µL/min/mg in each case.

For the origin of these results see ChEMBL document CHEMBL1139432, “Aryl sulfones as novel bradykinin B1 receptor antagonists for treatment of chronic pain” (Bioorg Med Chem Lett, 2008).
